The values below come from patent US8076302B2, “Pyrimidine nucleoside derivatives and salts thereof” (aRigen Pharmaceuticals, Inc., priority 2007, dated 2011).

Molecules are shown by their SMILES. Counter-ions that a name gives are not always drawn. Like-named read-outs stand apart in the source and are kept apart here.

The subject of data set [1] is HSV-1. In words: In vitro antiviral test, 50% plaque formation inhibition, anti-HSV-1 activity. It counts as cell-based, herpes simplex virus type 1 (HSV-1). As for the experimental part:
(§1) The compounds of the present invention were measured for their in vitro antiviral activity (anti-HSV-1 activity, anti-VZV activity) by using human fetal lung-derived cells in an assay for 50% plaque formation inhibition (Japanese Journal of Chemotherapy, Vol. 38, No. 3, 256-261, 1990).

In data set [2] the test system is VZV. In words: In vitro antiviral test, 50% plaque formation inhibition, anti-VZV activity. It counts as cell-based, varicella-zoster virus (VZV). The procedure: as §1
The test system of data set [3] is HSV-1 infection in mouse skin. Kind of data set: In vivo antiviral test, HSV-1 mouse skin infection model (creams). The conditions noted are these: HSV-1-infected mice, cream; for Incidence rate: affected/total animals. The procedure:
Creams were prepared for the compounds of the present invention according to Formulation Example 2 and tested for their therapeutic effect on HSV-1 infection in mouse skin. Moreover, skin symptoms in the HSV-1-infected mice were scored (Antiviral Research, 17, 133-143, 1992), and the time course of changes in their average lesion scores is shown in FIG. 1.
According to the ratio indicated above, creams were prepared in a routine manner and provided for Pharmacological Test Example 2.

For data set [4], the system named is herpes simplex virus type 1 (HSV-1) and varicella-zoster virus (VZV). The following applies: Patent Document 1; cited from earlier work.
In data set [5] the test system is HSV-1 infection in mice. The following applies: compared with acyclovir; Non-patent Document 1; cited from earlier work.
The test system of data set [6] is uninfected cells. The conditions noted are these: cited from earlier work.
[7] abbreviates: Human alphaherpesvirus 1, effective concentration required to reduce the number of plaques to 50%, human fetal lung-derived cells, read-out: Anti-HSV-1 activity (ED50).
The mark [8] stands for this setting: Human alphaherpesvirus 3, 50% plaque formation inhibition, human fetal lung-derived cells, read-out: Anti-VZV activity (ED50).
[9] abbreviates: Human alphaherpesvirus 1, read-out: Anti-HSV-1 activity (ED50).
Setting [10] is: Human alphaherpesvirus 3, read-out: Anti-VZV activity (ED50).

For `O=c1[nH]c(=O)n([C@@H]2O[C@H](CO)[C@@H](O)[C@@H]2O)cc1/C=C/Cl` [CVAU, 1-β-D-arabinofuranosyl-(E)-5-(2-chlorovinyl)uracil, reference compound], the EC50 in data set [1] (setting [7]) worked out at 75 nM; in data set [2] (setting [8]), 8.9 nM. The Incidence rate in data set [3] is on record as 6/8. The Survival rate in data set [3] (survivors/total animals, chi-square test vs control) is on record as 7/8 P < 0.01. In addition, the “Activity compared with sorivudine” value in data set [4] is “the same activity as sorivudine”.
Regarding `O=C(OCC1OC(n2cc(/C=C/Cl)c(=O)[nH]c2=O)C(O)C1O)C1CCNCC1` [Compound 1, (E)-5-(2-chlorovinyl)-1-[5′-O-(piperidine-4-carboxyl)-β-D-arabinofuranosyl]uracil hydrochloride], the values for the EC50 in data set [1] (setting [9]) and in data set [2] (setting [10]) were 400 nM and 46 nM, respectively. Moreover, in data set [3] (hydrochloride), the Incidence rate is given as 4/8.
`CC(C)C(N)C(=O)OCC1OC(n2cc(/C=C/Cl)c(=O)[nH]c2=O)C(O)C1O` [Compound 2, 1-[5′-0-(L-valine)-β-D-arabinofuranosyl]-(E)-5-(2-chlorovinyl)uracil hydrochloride]: the EC50 was found to be 120 nM in data set [1] (setting [9]) and 19 nM in data set [2] (setting [10]). The Incidence rate in data set [3] is on record as 8/8.
For `O=C(OCC1OC(n2cc(/C=C/Cl)c(=O)[nH]c2=O)C(O)C1O)c1cccnc1` [Compound 3, (E)-5-(2-chlorovinyl)-1-[5′-O-(pyridine-3-carboxyl)-β-D-arabinofuranosyl]uracil hydrochloride], the values for the EC50 in data set [1] (setting [7]) and in data set [2] (setting [8]) were 490 nM and 52 nM, respectively.
The like results for `O=C(OCC1OC(n2cc(/C=C/Cl)c(=O)[nH]c2=O)C(O)C1O)c1ccncc1` [Compound 4, (E)-5-(2-chlorovinyl)-1-[5′-O-(pyridine-4-carboxyl)-β-D-arabinofuranosyl]uracil hydrochloride] were, in that order, 130 nM and 21 nM.
On the same counts, the results for `CN1CCC(C(=O)OCC2OC(n3cc(/C=C/Cl)c(=O)[nH]c3=O)C(O)C2O)CC1` [Compound 5, (E)-5-(2-chlorovinyl)-1-[5′-O—(N-methylpiperidine-4-carboxyl)-β-D-arabinofuranosyl]uracil hydrochloride] are 560 nM and 47 nM.
Turning to `O=c1[nH]c(=O)n([C@@H]2O[C@H](CO)[C@@H](O)[C@@H]2O)cc1/C=C/Br` [Sorivudine, 1-β-D-arabinofuranosyl-(E)-5-(2-bromovinyl)uracil], in data set [5], the “Usefulness as external formulation for HSV-1 infection in mice” value was “as useful as acyclovir”. The Cytotoxicity entry in data set [6] is “extremely low”.
